Data published in patent US20230372481A1 (priority 2020, published 2023).
Where two headings read alike, the source gives them in different places.

Tests used:
CD45RA− memory T cells [1] = format: cell-based, human; conditions: for IFNγ production WITH IL15 X3, CD45RA− / IFNγ production WITH IL15 X3, CD45RA− CD3+ / IFNγ production WITH IL15 X3, CD45RA− CD3+ CD4+ / IFNγ production WITH IL15 X3, CD45RA− CD3+ CD8+ / FOLD INCREASE OF IFNγ PRODUCTION, CD45RA− / FOLD INCREASE OF IFNγ PRODUCTION, CD45RA− CD3+ / FOLD INCREASE OF IFNγ PRODUCTION, CD45RA− CD3+ CD4+ / FOLD INCREASE OF IFNγ PRODUCTION, CD45RA− CD3+ CD8+: three peptivators
CD45RA− memory T cells [2] = experiment: Phenotypic characterization of CD45RA− memory T cells in the presence of IL-15 (Table 11); format: cell-based, human; conditions: for Fold change CD127lowCD25+ (Treg): CD45RA−CD4+ subset
[3] = DAY 3 (72 hours) with IL-15 50 ng/ml
[4] = DAY 3, with minus without IL-15, three peptivators
[5] = O/N, with minus without IL-15, three peptivators
[6] = CD3+ subset, IL-15 for 72 hours
[7] = CD4+ subset, IL-15 for 72 hours
[8] = CD8+ subset, IL-15 for 72 hours
[9] = IL-15 72 hours vs control with no cytokine

Q: How did the “IFNγ production WITH IL15 X3, CD45RA−” value (CD45RA− memory T cells [1]; [3]) turn out when “IL15: cytokine fundamental for memory T cells that induces the activation, the proliferation and the survival of T cells” was run?
A: 1.9

Q: What about the “IFNγ production WITH IL15 X3, CD45RA− CD3+” value (CD45RA− memory T cells [1]; [3]) of the same substance?
A: 1.7

Q: And the “IFNγ production WITH IL15 X3, CD45RA− CD3+ CD4+” value (CD45RA− memory T cells [1]; [3])?
A: 1.5

Q: What about the “IFNγ production WITH IL15 X3, CD45RA− CD3+ CD8+” value (CD45RA− memory T cells [1]; [3]) of the same substance?
A: 2.7

Q: What about the “IFNγ production W-WO, CD45RA−” value (CD45RA− memory T cells [1]; [4]) of the same substance?
A: 1.6

Q: What about the “IFNγ production W-WO, CD45RA− CD3+” value (CD45RA− memory T cells [1]; [4]) of the same substance?
A: 1.4

Q: What about the “IFNγ production W-WO, CD45RA− CD3+ CD4+” value (CD45RA− memory T cells [1]; [4]) of the same substance?
A: 1.1

Q: And the “IFNγ production W-WO, CD45RA− CD3+ CD8+” value (CD45RA− memory T cells [1]; [4])?
A: 2.4

Q: What about the “FOLD INCREASE OF IFNγ PRODUCTION, CD45RA−” value (CD45RA− memory T cells [1]; DAY 3 with IL-15 vs without) of the same substance?
A: 5.3 fold

Q: And the “FOLD INCREASE OF IFNγ PRODUCTION, CD45RA− CD3+” value (CD45RA− memory T cells [1]; DAY 3 with IL-15 vs without)?
A: 5.8 fold

Q: What about the “FOLD INCREASE OF IFNγ PRODUCTION, CD45RA− CD3+ CD4+” value (CD45RA− memory T cells [1]; DAY 3 with IL-15 vs without) of the same substance?
A: 3.8 fold

Q: What about the “FOLD INCREASE OF IFNγ PRODUCTION, CD45RA− CD3+ CD8+” value (CD45RA− memory T cells [1]; DAY 3 with IL-15 vs without) of the same substance?
A: 11.6 fold

Q: What about the “IFNγ production WITH IL15 X3, CD45RA−” value (CD45RA− memory T cells [1]; O/N with IL-15 50 ng/ml) of the same substance?
A: 3.8

Q: And the “IFNγ production WITH IL15 X3, CD45RA− CD3+” value (CD45RA− memory T cells [1]; O/N with IL-15 50 ng/ml)?
A: 3.8

Q: And the “IFNγ production WITH IL15 X3, CD45RA− CD3+ CD4+” value (CD45RA− memory T cells [1]; O/N with IL-15 50 ng/ml)?
A: 3.8

Q: What about the “IFNγ production WITH IL15 X3, CD45RA− CD3+ CD8+” value (CD45RA− memory T cells [1]; O/N with IL-15 50 ng/ml) of the same substance?
A: 4.6

Q: And the “FOLD INCREASE OF IFNγ PRODUCTION, CD45RA−” value (CD45RA− memory T cells [1]; O/N with IL-15 vs without)?
A: 19.2 fold

Q: What about the “FOLD INCREASE OF IFNγ PRODUCTION, CD45RA− CD3+” value (CD45RA− memory T cells [1]; O/N with IL-15 vs without) of the same substance?
A: 13.6 fold

Q: What about the “FOLD INCREASE OF IFNγ PRODUCTION, CD45RA− CD3+ CD4+” value (CD45RA− memory T cells [1]; O/N with IL-15 vs without) of the same substance?
A: 12.5 fold

Q: What about the “FOLD INCREASE OF IFNγ PRODUCTION, CD45RA− CD3+ CD8+” value (CD45RA− memory T cells [1]; O/N with IL-15 vs without) of the same substance?
A: 14.8 fold

Q: What about the “IFNγ production W-WO, CD45RA−” value (CD45RA− memory T cells [1]; [5]) of the same substance?
A: 3.6

Q: And the “IFNγ production W-WO, CD45RA− CD3+” value (CD45RA− memory T cells [1]; [5])?
A: 3.5

Q: What about the “IFNγ production W-WO, CD45RA− CD3+ CD4+” value (CD45RA− memory T cells [1]; [5]) of the same substance?
A: 3.5

Q: What about the “IFNγ production W-WO, CD45RA− CD3+ CD8+” value (CD45RA− memory T cells [1]; [5]) of the same substance?
A: 4.3

Q: What about the “% Memory T cells, % CD45RA−” value (CD45RA− memory T cells [1]; WITH IL15 PEPX3 72 hours) of the same substance?
A: 84%

Q: And the “% Memory T cells, % CD45RA−CD3+” value (CD45RA− memory T cells [1]; WITH IL15 PEPX3 72 hours)?
A: 95.1%

Q: What about the “% Memory T cells, % CD45RA−CD3+ CD4+” value (CD45RA− memory T cells [1]; WITH IL15 PEPX3 72 hours) of the same substance?
A: 91.2%

Q: And the “% Memory T cells, % CD45RA−CD3+ CD8+” value (CD45RA− memory T cells [1]; WITH IL15 PEPX3 72 hours)?
A: 3.45%

Q: And the “% Memory T cells, % CD45RA−” value (CD45RA− memory T cells [1]; WITH IL15 PEPX3 o/n)?
A: 97.7%

Q: What about the “% Memory T cells, % CD45RA−CD3+” value (CD45RA− memory T cells [1]; WITH IL15 PEPX3 o/n) of the same substance?
A: 94.9%

Q: And the “% Memory T cells, % CD45RA−CD3+ CD4+” value (CD45RA− memory T cells [1]; WITH IL15 PEPX3 o/n)?
A: 91%

Q: What about the “% Memory T cells, % CD45RA−CD3+ CD8+” value (CD45RA− memory T cells [1]; WITH IL15 PEPX3 o/n) of the same substance?
A: 6.23%

Q: And the “Fold change CD25+ (T cell activation marker)” value (“Fold change CD25+” for short) (CD45RA− memory T cells [2]; [6])?
A: 13.16

Q: And the “Fold change CD69+ (T cell activation marker)” value (“Fold change CD69+” below) (CD45RA− memory T cells [2]; [6])?
A: 26

Q: What about the “Fold change HLA-DR+ high (T cell activation marker)” value (shortened to “Fold change HLA-DR+ high”) (CD45RA− memory T cells [2]; [6]) of the same substance?
A: 1.21

Q: And the “Fold change NKG2A+ (T cell exhaustion marker)” value (“Fold change NKG2A+” below) (CD45RA− memory T cells [2]; [6])?
A: 0.77

Q: And the “Fold change PD1+ high (T cell exhaustion marker)” value (“Fold change PD1+ high” below) (CD45RA− memory T cells [2]; [6])?
A: 3.43

Q: What about the “Fold change CD25+” value (CD45RA− memory T cells [2]; CD3+ subset, IL-15 o/n) of the same substance?
A: 2.11

Q: What about the “Fold change CD69+” value (CD45RA− memory T cells [2]; CD3+ subset, IL-15 o/n) of the same substance?
A: 3.82

Q: What about the “Fold change HLA-DR+ high” value (CD45RA− memory T cells [2]; CD3+ subset, IL-15 o/n) of the same substance?
A: 1.11

Q: What about the “Fold change NKG2A+” value (CD45RA− memory T cells [2]; CD3+ subset, IL-15 o/n) of the same substance?
A: 0.61

Q: And the “Fold change PD1+ high” value (CD45RA− memory T cells [2]; CD3+ subset, IL-15 o/n)?
A: 1.43

Q: And the “Fold change CD25+” value (CD45RA− memory T cells [2]; [7])?
A: 9.88

Q: What about the “Fold change CD69+” value (CD45RA− memory T cells [2]; [7]) of the same substance?
A: 27.82

Q: What about the “Fold change HLA-DR+ high” value (CD45RA− memory T cells [2]; [7]) of the same substance?
A: 1.22

Q: And the “Fold change NKG2A+” value (CD45RA− memory T cells [2]; [7])?
A: 2.67

Q: What about the “Fold change PD1+ high” value (CD45RA− memory T cells [2]; [7]) of the same substance?
A: 3.41

Q: What about the “Fold change CD25+” value (CD45RA− memory T cells [2]; CD4+ subset, IL-15 o/n) of the same substance?
A: 2.12

Q: What about the “Fold change CD69+” value (CD45RA− memory T cells [2]; CD4+ subset, IL-15 o/n) of the same substance?
A: 4.48

Q: And the “Fold change HLA-DR+ high” value (CD45RA− memory T cells [2]; CD4+ subset, IL-15 o/n)?
A: 0.97

Q: What about the “Fold change NKG2A+” value (CD45RA− memory T cells [2]; CD4+ subset, IL-15 o/n) of the same substance?
A: 0.39

Q: And the “Fold change PD1+ high” value (CD45RA− memory T cells [2]; CD4+ subset, IL-15 o/n)?
A: 1.35

Q: And the “Fold change CD25+” value (CD45RA− memory T cells [2]; [8])?
A: 105

Q: What about the “Fold change CD69+” value (CD45RA− memory T cells [2]; [8]) of the same substance?
A: 6.48

Q: And the “Fold change HLA-DR+ high” value (CD45RA− memory T cells [2]; [8])?
A: 1.61

Q: And the “Fold change NKG2A+” value (CD45RA− memory T cells [2]; [8])?
A: 1.23

Q: And the “Fold change PD1+ high” value (CD45RA− memory T cells [2]; [8])?
A: 2.97

Q: And the “Fold change CD25+” value (CD45RA− memory T cells [2]; CD8+ subset, IL-15 o/n)?
A: 14.27

Q: What about the “Fold change CD69+” value (CD45RA− memory T cells [2]; CD8+ subset, IL-15 o/n) of the same substance?
A: 2.10

Q: And the “Fold change HLA-DR+ high” value (CD45RA− memory T cells [2]; CD8+ subset, IL-15 o/n)?
A: 1.32

Q: And the “Fold change NKG2A+” value (CD45RA− memory T cells [2]; CD8+ subset, IL-15 o/n)?
A: 0.73

Q: What about the “Fold change PD1+ high” value (CD45RA− memory T cells [2]; CD8+ subset, IL-15 o/n) of the same substance?
A: 1.51

Q: What about the “Fold change CD127lowCD25+ (Treg)” value (CD45RA− memory T cells [2]; IL-15 for 72 hours vs day 0 WO IL15) of the same substance?
A: 7.88

Q: And the “Fold change CD127lowCD25+ (Treg)” value (CD45RA− memory T cells [2]; IL-15 o/n vs day 0 WO IL15)?
A: 1.85

Q: And the “Fold time change of exhaustion marker NKG2A, CD45RA−CD3+ cells” value (CD45RA− memory T cells [2]; IL-15 72 hours)?
A: 0.77 fold

Q: And the “Fold time change of exhaustion marker PD-1, CD45RA−CD3+ cells” value (CD45RA− memory T cells [2]; IL-15 72 hours)?
A: 3.43 fold

Q: What about the “Fold increase of activation marker CD25, CD45RA− CD3+ cells” value (CD45RA− memory T cells [2]; [9]) of the same substance?
A: 13.26 fold

Q: What about the “Fold increase of activation marker CD69, CD45RA− CD3+ cells” value (CD45RA− memory T cells [2]; [9]) of the same substance?
A: 26 fold
